A word on the Kd: it is a measure of binding affinity in units of concentration. Low values mean higher affinity, high ones lower affinity.

This note sets out measurements from US20260265321A1, “PEPTIDE AND POLYPEPTIDE INHIBITING THE NF-KB SIGNALING PATHWAY” (Centre National de la Recherche Scientifique, priority 2023, published 2026).

In experiment [1] the target is T1, endogenous IKK immunoprecipitated from HEK293T cells (Homo sapiens, UniProt O14920+O15111).
T1 construct: endogenous canonical IKK, which was immunoprecipitated from HEK293T cells using an anti-NEMO antibody; endogenous in cells; host or cells: HEK293T cells induced with TNFα; anti-NEMO immunoprecipitate on protein G beads
Nature of the experiment: In vitro kinase assay with endogenous IKK, inhibition by synthetic peptides. Type of experiment: biochemical. Particulars: 500 μM synthetic peptide, 1 μM 6×His-IκBα wt, 30° C. The protocol: Using endogenous IKK complex. IKK was immunoprecipitated from HEK293T cells. 3 petri dishes (100×15 mm, corning) of cells at 70% confluence were induced with 10 nM recombinant TNFα (abcam, #ab9642) for 10 minutes, and then washed twice by cold PBS. The whole-cell extracts were prepared by addition of 1 ml of lysis buffer (50 mM HEPES pH 8, 200 mM NaCl, 0.5% NP-40, 1 mM EDTA, 10 mM KCl, 1 mM DTT, Roche cOmplete™ protease inhibitors cocktail, 50 mM NaF, 50 mM b-glycerophosphate and 1 mM Na orthovanadate) and homogenized by passing through a 21-gauge needle for 5-10 times. After 30 minutes of incubation on ice, the extracts were centrifuged at 11,000 g and at 4° C. The cleared supernatants were incubated with 15 μl of anti-NEMO antibody (Santa Cruz biotech, #F-10) overnight at 4° C. and, then, immunoprecipitated with 150 μl of protein G Sepharose beads (GE, #17-0618-01) for 2 hours at 4° C. […]
Kinase activity reactions were performed in kinase buffer (defined above) using 50 μl immunoprecipitant and 1 μM of purified full-length 6×His-IκBα wt or mutant constructs. […] The reaction products were analysed on a 10% SDS-PAGE gel and Western blotting using anti-phospho-IκBα (Cell Signaling Technology, #9246), anti-IKKβ (cell signaling, #2684s) and anti-6×His (sigma, #SAB4301134) antibodies. The relative amounts of phosphorylated IκBα were quantified using ImageJ.

The target in experiment [2] is T2, IKKα(10-667) EE homodimer (Homo sapiens, UniProt O15111, S176E/S180E).
T2 construct: an equivalent construct of the IKKα homodimer (i.e. IKKα(10-667) S176E/S180E, named IKKα(10-667) EE hereafter); 6×His (followed by TEV site) (N, cleaved yes); made in house; host or cells: Sf21 insect cells (baculovirus)
T2 sequence (O15111 10-667 S176E/S180E): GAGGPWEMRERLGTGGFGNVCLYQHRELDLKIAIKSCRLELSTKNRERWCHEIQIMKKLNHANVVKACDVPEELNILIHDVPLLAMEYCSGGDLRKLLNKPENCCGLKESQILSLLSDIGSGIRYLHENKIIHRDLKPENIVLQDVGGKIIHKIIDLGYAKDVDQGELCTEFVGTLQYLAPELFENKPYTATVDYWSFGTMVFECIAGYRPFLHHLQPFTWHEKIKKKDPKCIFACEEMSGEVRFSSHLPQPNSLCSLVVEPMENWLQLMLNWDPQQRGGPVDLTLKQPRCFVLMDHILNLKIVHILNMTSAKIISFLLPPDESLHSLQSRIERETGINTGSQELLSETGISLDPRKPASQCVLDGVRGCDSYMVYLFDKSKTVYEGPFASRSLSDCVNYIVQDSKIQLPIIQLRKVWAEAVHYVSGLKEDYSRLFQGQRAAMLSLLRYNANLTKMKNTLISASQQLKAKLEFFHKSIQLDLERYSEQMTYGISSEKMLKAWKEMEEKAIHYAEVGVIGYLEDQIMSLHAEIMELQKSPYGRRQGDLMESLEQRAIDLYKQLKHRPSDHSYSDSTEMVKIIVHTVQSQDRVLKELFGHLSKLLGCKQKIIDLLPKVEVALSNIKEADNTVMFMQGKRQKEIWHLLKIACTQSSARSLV
Description: Isothermal titration calorimetry (ITC) of peptide binding to IKKα homodimer. The settings on record: for TΔS / ΔG / ΔH / Kd: IKKα. The protocol:
All experiments were performed in ITC buffer (20 mM HEPES pH 8.0, 150 mM NaCl, 1 mM TCEP) unless otherwise stated. Purified IKKα(10-667) EE and IKKβ(1-669) EE protein samples were dialyzed overnight against ITC buffer at 4° C. Just before the ITC experiments, IKKα or IKKβ samples were concentrated, incubated at room temperature for 30 minutes and centrifuged at 11000 g to remove eventual precipitate. The final concentrations of IKKα and IKKβ in the sample cell varied between 22 and 50 μM depending on the measurement. HPLC purified synthetic peptides (IκBα pep) comprising residues 297-317 of IκBα were further desalted using a Nap5 (GE Healthcare, #17-0853-01) column equilibrated in milliQ water, lyophilized and then resuspended in ITC buffer. The concentration of peptides in the syringe varied between 220 and 975 μM depending on the measurement.
All ITC measurements were performed using a PEAQ-ITC MALVERN instrument. The titration parameters were set as following: temperature 25° C., reference power 10 μcal/s, feedback=high, stirring speed 750 RPM, initial delay 60 s, first injection 0.4 μl in 0.8 s and the remaining 19 injections were 2 μL in 4 s with 120 s of spacing. The data were fitted to a 1:1 binding model. All data were processed using NITPIC software and global fitting of two datasets was carried out using SEDPHAD.
To evaluate binding affinities, isothermal titration calorimetry (ITC) experiments were performed using a synthetic peptide that comprises the YDDφXφ motif plus the N-terminal acidic patch (residues 297-317, named IκBα pep hereafter) and purified IKKβ(1-669) EE homodimer or an equivalent construct of the IKKα homodimer (i.e. IKKα(10-667) S176E/S180E, named IKKα(10-667) EE hereafter). […] ITC analyses on the IKKα/β heterodimer were prevented by strong aggregation propensity at the concentrations required for these experiments.
All ITC experiments were performed at 25° C. The data were fitted to a 1:1 binding model. N refers to the binding stoichiometry of IKKα/β: pep, meaning that approximately half of total IKKα/β concentration binds pep ligand in agreement with the dimer form of IKKα/β being binding competent. The values for the IKKα interaction with IRF7 pep should be regarded as estimates due to low affinity and weakly exothermic binding, and therefore high experimental error and fitting uncertainty. All data were processed using NITPIC software and global fitting of two datasets was carried out using SEDPHAD.
(In general: ITC needs no label: the signal is the heat of the interaction.)

Residues, ends and D or L forms follow the SMILES beside them.

T1 sequence (O14920 whole entry): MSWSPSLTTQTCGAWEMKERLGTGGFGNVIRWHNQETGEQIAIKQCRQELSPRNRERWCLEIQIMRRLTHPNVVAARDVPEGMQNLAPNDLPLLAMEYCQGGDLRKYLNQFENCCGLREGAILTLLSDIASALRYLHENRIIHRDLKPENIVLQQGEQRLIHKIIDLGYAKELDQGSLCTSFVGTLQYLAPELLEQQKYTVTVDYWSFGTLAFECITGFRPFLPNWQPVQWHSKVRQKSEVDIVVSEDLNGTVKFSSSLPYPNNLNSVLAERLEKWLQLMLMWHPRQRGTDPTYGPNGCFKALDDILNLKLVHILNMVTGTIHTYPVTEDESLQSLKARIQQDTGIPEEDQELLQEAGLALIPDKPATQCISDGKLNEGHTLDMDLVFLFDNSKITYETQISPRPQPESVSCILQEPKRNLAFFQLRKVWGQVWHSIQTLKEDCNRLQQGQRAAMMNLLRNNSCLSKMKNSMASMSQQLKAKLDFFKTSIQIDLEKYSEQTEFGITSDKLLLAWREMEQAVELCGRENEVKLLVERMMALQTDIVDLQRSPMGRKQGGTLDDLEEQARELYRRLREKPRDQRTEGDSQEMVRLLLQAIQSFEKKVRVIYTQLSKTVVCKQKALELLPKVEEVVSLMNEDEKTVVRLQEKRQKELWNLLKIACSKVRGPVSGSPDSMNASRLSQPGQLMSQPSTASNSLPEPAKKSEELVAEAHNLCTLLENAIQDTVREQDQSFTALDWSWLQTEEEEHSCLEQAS
T1 sequence (O15111 whole entry): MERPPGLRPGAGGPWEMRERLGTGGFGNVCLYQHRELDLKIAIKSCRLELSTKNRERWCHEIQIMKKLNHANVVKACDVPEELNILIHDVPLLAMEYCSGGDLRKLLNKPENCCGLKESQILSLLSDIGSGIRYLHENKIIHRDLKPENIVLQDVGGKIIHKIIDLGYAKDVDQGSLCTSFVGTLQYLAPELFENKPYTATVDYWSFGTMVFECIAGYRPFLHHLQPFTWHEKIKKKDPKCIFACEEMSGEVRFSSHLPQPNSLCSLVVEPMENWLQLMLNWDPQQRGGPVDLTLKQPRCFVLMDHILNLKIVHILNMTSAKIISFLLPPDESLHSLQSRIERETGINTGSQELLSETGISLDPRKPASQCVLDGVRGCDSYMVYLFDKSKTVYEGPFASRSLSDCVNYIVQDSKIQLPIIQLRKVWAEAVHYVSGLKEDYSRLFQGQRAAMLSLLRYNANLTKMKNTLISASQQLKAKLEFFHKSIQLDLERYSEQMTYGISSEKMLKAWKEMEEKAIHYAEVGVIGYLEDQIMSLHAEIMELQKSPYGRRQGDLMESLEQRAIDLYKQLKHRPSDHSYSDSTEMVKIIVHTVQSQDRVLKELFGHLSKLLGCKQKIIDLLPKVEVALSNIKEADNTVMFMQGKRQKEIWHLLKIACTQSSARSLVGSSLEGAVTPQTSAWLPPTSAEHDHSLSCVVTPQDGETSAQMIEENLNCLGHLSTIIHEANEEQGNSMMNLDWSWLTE
T1 sequence (Q9Y6K9 whole entry partner): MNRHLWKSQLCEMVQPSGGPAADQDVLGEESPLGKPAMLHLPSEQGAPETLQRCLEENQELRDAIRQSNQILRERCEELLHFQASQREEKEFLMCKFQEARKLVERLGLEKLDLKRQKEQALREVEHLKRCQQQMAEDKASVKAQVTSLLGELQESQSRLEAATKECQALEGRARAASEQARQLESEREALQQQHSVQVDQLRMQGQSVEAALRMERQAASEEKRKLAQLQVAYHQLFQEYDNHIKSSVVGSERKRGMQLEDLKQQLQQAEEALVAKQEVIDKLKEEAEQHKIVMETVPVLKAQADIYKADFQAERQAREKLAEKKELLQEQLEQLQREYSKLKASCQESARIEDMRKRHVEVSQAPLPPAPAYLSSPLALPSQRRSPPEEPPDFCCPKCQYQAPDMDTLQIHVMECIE

With `CC(C)C[C@H](NC(=O)[C@@H](NC(=O)[C@H](CC(C)C)NC(=O)[C@H](CCCNC(=N)N)NC(=O)[C@H](CCC(N)=O)NC(=O)CNC(=O)CNC(=O)[C@H](Cc1ccccc1)NC(=O)[C@@H](NC(=O)[C@H](CC(C)C)NC(=O)[C@H](CC(=O)O)NC(=O)[C@H](CC(=O)O)NC(=O)[C@H](Cc1ccc(O)cc1)NC(=O)[C@@H]1CCCN1C(=O)[C@H](CC(C)C)NC(=O)[C@H](CCC(=O)O)NC(=O)[C@H](CC(=O)O)NC(=O)[C@H](CCC(=O)O)NC(=O)[C@@H](NC(=O)[C@H](Cc1ccccc1)NC(=O)[C@@H](N)CCC(=O)O)[C@@H](C)O)C(C)C)[C@@H](C)O)C(=O)O` [IkBα pep C308L] (H-EFTEDELPYDDLVFGGQRLTL-OH; N-terminus and C-terminus assumed), the “inhibition of IκBα phosphorylation (Ser32/Ser36)” value in experiment [1] was “inhibit IκBα phosphorylation more efficiently than the YD/SS negative control peptide”. Also, in experiment [2], the “enhancement of affinity to IKKα relative to IκBα pep wt” value was 25 fold and the Kd is 0.35 µM. The “N (binding stoichiometry of IKKα: pep)” value in experiment [2] (25° C., 1:1 binding model) turned out to be 0.65. Also, in experiment [2] (25° C.), the TΔS is -4.71 kcal/mol, the ΔG is -8.80 kcal/mol and the ΔH was -13.5 kcal/mol.
For the compound `CC(C)C[C@H](NC(=O)[C@@H](NC(=O)[C@H](CC(C)C)NC(=O)[C@H](CCCNC(=N)N)NC(=O)[C@H](CCC(N)=O)NC(=O)CNC(=O)CNC(=O)[C@H](Cc1ccccc1)NC(=O)[C@@H](NC(=O)[C@H](CS)NC(=O)[C@H](CC(=O)O)NC(=O)[C@H](CC(=O)O)NC(=O)[C@H](Cc1ccc(O)cc1)NC(=O)[C@@H]1CCCN1C(=O)[C@H](CC(C)C)NC(=O)[C@H](CCC(=O)O)NC(=O)[C@H](CC(=O)O)NC(=O)[C@H](CCC(=O)O)NC(=O)[C@@H](NC(=O)[C@H](Cc1ccccc1)NC(=O)[C@@H](N)CCC(=O)O)[C@@H](C)O)C(C)C)[C@@H](C)O)C(=O)O` [IκBα pep] (H-EFTEDELPYDDCVFGGQRLTL-OH; N-terminus and C-terminus assumed), the “inhibition of IκBα phosphorylation (Ser32/Ser36)” value in experiment [1] is on record as “inhibit IκBα phosphorylation more efficiently than the YD/SS negative control peptide”. Besides, in experiment [2] (25° C., 1:1 binding model), the “N (binding stoichiometry of IKKα: pep)” value is 0.62 and the Kd was 9 µM. Also, in experiment [2] (25° C.), the TΔS was -8.35 kcal/mol, the ΔG was -6.88 kcal/mol and the ΔH was -15.2 kcal/mol.
